Assay results from patent US20220098146A1, “REVERSIBLE IMINE UV-ABSORBERS” (The United States of America, as represented by the …, priority 2020, published 2022).
Values after ≈ are worked out from the molar mass of the structure shown.

Assays:
[1] = system: Rat; conditions: cited from earlier work
[2] = system: Silver ide; conditions: cited from earlier work
[3] = system: Fathead minnow; conditions: cited from earlier work
[4] = in vitro SPF and critical wavelength by UV spectroscopy and Mansur equation; type: physicochemical
Protocol: General procedure for determining in vitro SPF and critical wavelength: This method was adapted from Dutra, et al. (Dutra, E. A., et al., Brazilian Journal of Pharmaceutical Sciences, 3: 381-385 (2004)). First, 1.0 gram of sunscreen was placed in 100 mL flask and filled to volume with ethanol. The solution was mixed and filtered through cotton. 1.0 mL of the filtered solution was added to a 50 mL volumetric flask and the flask was filled to volume with ethanol. This final solution (˜0.02% of initial sunscreen) was placed in a 1 cm polystyrene cuvette and UV/Vis spectrum was recorded from 290 to 400 nm, every 5 nm, using a UV/Vis spectrophotometer (Molecular Devices Spectramax M2 UV-Vis Spectrophotometer) with ethanol as a reference . Next, the Mansur equation was applied (Mansur, J. S., et al., An Bras Dermatol., 61: 121-124 (1986)):
where EE (λ)=erythemal effect spectrum; I(λ)=solar intensity spectrum; abs (λ)=absorbance of sunscreen product; CF—correction factor (=10). The values of EE×I are constants determined by Sayre et al. (Photochemistry and Photobiology, 29(3): 559-566 (1979)) so that a standard sunscreen formulation containing 8% homosalate presents an SPF value of 4. The critical wavelength was determined as the wavelength at which 90% of the total absorbance from 290-400 nm occurred. […]

[5] = system: skin of the intrascapular regions of the back; assay: Human repeat insult patch testing (RIPT) for skin irritation and skin sensitization; type: in vivo
Protocol: S2: Repeat Insult Patch Testing (RIPT) Procedure and Results: Human repeat insult patch testing for skin irritation and skin sensitization evaluations, including standard patient consent procedures and oversight, which were obtained after the nature and possible consequences of the study were explained, were conducted by BioScreen Testing Services, Inc. (Torrance, Calif.). Fifty-two volunteers were recruited, provided informed consent prior to initiating, and completed the study (ages 20-59, 10 male, 42 female, all with Fitzpatrick Skin Type 3—burn moderately, tan progressively). Approximately 0.02-0.05 mL of commercial formula (Daily Shower spray cleaner containing 0.2 or 1.0% cuminaldehyde aminoguanidine (CuminAG), pH 5.5-5.9; diluted 3% in DI water) was dispensed on a 7.5 mm paper disk or Rayon/polypropylene patch, which were then affixed to the skin of the intrascapular regions of the back. Subjects were instructed not to wet or expose the test area to sunlight. Patches were kept in place for 48 h after the first application, and 24 h after subsequent applications. This procedure was repeated until nine consecutive 24 h exposures had been made three times a week for three consecutive weeks. Test sites were evaluated by a trained laboratory personnel before each reapplication. After a 10-14 day rest period, a challenge dose was applied once to a previously unexposed test site, which was evaluated by a trained personnel after 48 and 96 h. The International Contact Dermatitis Research Group scoring scale was used: 0=no reaction, 1=erythema throughout at least ¾ of patch area, 2=erythema and induration throughout at least ¾ of patch area, 3=erythema, induration and vesicles, 4=erythema, induration and bullae.

[6] = Calculation of skin permeation coefficient using Modified Potts and Guy Model; conditions: ratio of calculated skin permeation coefficient to that of octinoxate
Source text: S1: Calculation of Skin Permeation using Modified Potts and Guy Model: The Modified Potts and Guy Model is a validated method for calculating the skin permeation coefficient (Kp) of a compound in cm/hr (Wilschut et al. 1995; Guy and Potts 1993). It relies on two inputs—the octanol-water partition coefficient, (Kow, indicative of hydrophobicity), and the molecular weight of the compound as follows:
Using the Modified Potts and Guy Model, we calculated the skin permeation coefficient (Kp) of aminoguanidine and aldehyde subcomponents. This scenario represents the skin permeation of our compounds after dissociation. In order to probe skin permeation of the assembled guanyl hydrazones, which don't have published Kow's, we calculated Kp's of structurally similar molecules, robenidine and guanabenz. This scenario represents the application of our UV-absorbers directly to the skin via topical products. Lastly, we calculated the Kp of octinoxate for comparison. Based on these theoretical values, our compounds should have a much lower skin permeation potential than octinoxate and other commercial UV-absorbers.

[7] = film leaching in DI or sea water with anion pairing; type: physicochemical
Protocol: General protocol to assess film leaching: To a polyethylene square (1 cm by 1 cm, cut from a Ziploc® bag) 10 μL of a concentrated solution (˜5 wt % in EtOH) of imine was applied and allowed to dry at room temperature (10-20 min) before a concentrated solution of the anion (e.g., sodium lauryl sulfate, sodium cocoyl glutamate, sodium carbonate) to be tested (˜5 wt %) was co-applied and again allowed to dry on the film surface. The film sample was placed inside a 1.5 mL plastic tube containing 1 mL of DI or sea water (sourced from San Francisco Bay, Albany, Calif.) and after a set time (10 min), analyzed for the presence of soluble imine, which was quantified as a percentage of total sample that was originally present on the film (FIG. 6).
As an additional feature, reversible UV-absorbers (e.g., aminoguanidine-aldehyde condensation products) can be paired with anions (e.g., that associate with the cation at typical use levels, e.g., 0.1-10 wt %) to manipulate solubility characteristics. This can greatly reduce water solubility to produce a waterproof sunscreen without relying on increased hydrophobicity of the active agent which is related to increased skin penetration (Wilschut, A., et al., Chemosphere, 30: 1275-1296 (1995); Guy, R. H., and R. O. Potts. American Journal of Industrial Medicine, 23(5): 711-719 (1993))).

[8] = UV absorbance spectroscopy versus subcomponents; type: physicochemical; conditions: versus diaminoguanidine and cinnamaldehyde; UVB and UVA regions
Source text: We determined the UV absorbing capacity of guanyl hydrazones in comparison to their aminoguanidine and aldehyde subcomponents. We prepared cinnamaldehyde diaminoguanidine (CinDAG) by reacting its subcomponents, diaminoguanidine and cinnamaldehyde, in a molar ratio of 1:2.

COc1ccc(C=O)cc1 [Anisaldehyde]
LD50 (mg/kg) Rat, oral [1]: 1510 mg/kg | LC50 (mg/L) Fish [2]: 215 mg/L (≈ 1580 µM)

O=Cc1ccccc1 [Benzaldehyde]
LC50 (mg/L) Fish [3]: 12.4 mg/L (≈ 117 µM) | LD50 (mg/kg) Rat, oral [1]: 1300 mg/kg

NC(N)=NN=CC=Cc1ccccc1 [CinAG, cinnamaldehyde aminoguanidine]
in vitro SPF improvement over octinoxate ([4]; concentration of 1% in formula): 155%

O=CC=Cc1ccccc1 [Cinnamaldehyde]
LC50 (mg/L) Fish [3]: 105.8 mg/L (≈ 801 µM) | LD50 (mg/kg) Rat, oral [1]: 3350 mg/kg

CC(C)c1ccc(C=NN=C(N)N)cc1 [CuminAG, cuminaldehyde aminoguanidine]
adverse reactions in RIPT ([5]; Daily Shower spray cleaner containing 0.2 or 1.0% CuminAG, pH 5.5-5.9, diluted 3% in DI water, 52 volunteers, induction and challenge): no adverse reactions of any kind

CC(C)c1ccc(C=O)cc1 [Cuminaldehyde]
LC50 (mg/L) Fish [3]: 6.62 mg/L (≈ 44.7 µM) | LD50 (mg/kg) Rat, oral [1]: 1390 mg/kg

N/N=C(\N)NN [Diaminoguanidine]
Kp/Kp octinoxate [6]: 0.0001

CCCCC(CC)COC(=O)C=Cc1ccc(OC)cc1 (stereo not drawn) [Octinoxate, reference compound]
Kp/Kp octinoxate [6]: 1.0000

CCCCCCCCCCCCOS(=O)(=O)[O-].[Na+] [sodium lauryl sulfate]
subjects with Grade 1 reaction in RIPT ([5]; positive control, 2.0% solution, ICDRG scale, 1=erythema throughout at least 3/4 of patch area): Four | subjects with Grade 2 reaction in RIPT ([5]; positive control, 2.0% solution, ICDRG scale, 2=erythema and induration throughout at least 3/4 of patch area): two

cinnamaldehyde diaminoguanidine [CinDAG]
water resistance of the blend ([7]; blend with sodium cocoyl glutamate): comparable to that of octinoxate | solubility (leaching off film) on anion pairing ([7]; sodium cocoyl glutamate added, fresh and salt water, 10 min): decreased solubility in both fresh and salt water | UV-absorbing capacity compared to subcomponents [8]: significantly more UV-absorbing capacity than its subcomponents | critical wavelength ([4]; wavelength at which 90% of total absorbance from 290-400 nm occurred): high critical wavelength
